Data reported in US20080139558A1, “QUINOLONES USEFUL AS INDUCIBLE NITRIC OXIDE SYNTHASE INHIBITORS” (KALYPSYS, INC., priority 2006, published 2008).

target: T1, human iNOS (Homo sapiens, UniProt P35228); assay: DAN assay of nitric oxide production (hiNOS); assay type: cell-based; conditions: enzyme expressed in HEK293 cells transiently transfected with human iNOS
T1 construct: expressed in transfected cells; host or cells: HEK293
Procedure, shortened: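 Human iNOS transiently expressed in HEK293 cells; NO production quantified as nitrite via 2,3-diaminonaphthalene reaction forming fluorescent naphthotriazole.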

T1 sequence (P35228 whole entry): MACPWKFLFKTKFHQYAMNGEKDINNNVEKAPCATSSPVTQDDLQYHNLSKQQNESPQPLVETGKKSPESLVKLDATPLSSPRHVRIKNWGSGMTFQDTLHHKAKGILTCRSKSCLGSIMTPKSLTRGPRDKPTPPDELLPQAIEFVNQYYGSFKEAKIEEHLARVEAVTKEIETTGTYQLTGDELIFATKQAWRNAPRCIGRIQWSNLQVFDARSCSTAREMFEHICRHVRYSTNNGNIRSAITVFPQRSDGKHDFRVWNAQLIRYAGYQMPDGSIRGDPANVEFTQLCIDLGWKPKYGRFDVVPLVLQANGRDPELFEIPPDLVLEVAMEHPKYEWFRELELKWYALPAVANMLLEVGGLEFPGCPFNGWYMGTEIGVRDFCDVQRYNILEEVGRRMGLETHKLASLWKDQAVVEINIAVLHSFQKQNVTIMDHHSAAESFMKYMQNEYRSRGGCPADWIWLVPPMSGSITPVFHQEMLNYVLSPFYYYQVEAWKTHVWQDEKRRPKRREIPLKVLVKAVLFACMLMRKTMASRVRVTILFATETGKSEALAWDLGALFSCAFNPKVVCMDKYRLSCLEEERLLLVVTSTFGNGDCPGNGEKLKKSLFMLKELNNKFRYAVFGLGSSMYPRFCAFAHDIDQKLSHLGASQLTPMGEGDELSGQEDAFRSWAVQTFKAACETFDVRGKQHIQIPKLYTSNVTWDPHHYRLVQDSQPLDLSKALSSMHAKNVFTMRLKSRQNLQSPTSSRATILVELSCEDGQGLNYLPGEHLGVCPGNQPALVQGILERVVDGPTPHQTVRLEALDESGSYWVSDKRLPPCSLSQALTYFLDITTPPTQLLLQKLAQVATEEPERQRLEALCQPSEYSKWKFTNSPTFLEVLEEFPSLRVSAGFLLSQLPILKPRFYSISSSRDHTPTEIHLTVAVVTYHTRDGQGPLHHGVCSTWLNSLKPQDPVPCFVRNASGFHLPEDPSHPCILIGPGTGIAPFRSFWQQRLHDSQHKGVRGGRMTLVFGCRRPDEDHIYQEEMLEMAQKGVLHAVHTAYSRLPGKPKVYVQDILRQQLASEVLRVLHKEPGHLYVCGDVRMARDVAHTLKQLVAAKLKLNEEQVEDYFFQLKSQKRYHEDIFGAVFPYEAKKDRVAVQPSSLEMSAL

SMILES | EC50 [µM]
Cc1ncsc1C(=O)N(Cc1cc(=O)[nH]c2c(F)c(F)ccc12)c1cc(F)cc(F)c1 [Example 178, N-(3,5-Difluorophenyl)-N-((7,8-fluoro-2-oxo-1,2-dihydroquinolin-4-yl)methyl)-4-methylthiazole-5-carboxamide] | ≤ 5
Cc1ccncc1C(=O)N(Cc1cc2cccc(F)c2[nH]c1=O)c1cccc(Cl)c1 [Example 172, N-(3-Chlorophenyl)-N-((8-fluoro-2-oxo-1,2-dihydroquinolin-3-yl)methyl)-4-methylnicotinamide] | > 5
Cc1nc(-c2cccc(Cl)c2)n(Cc2cc(=O)[nH]c3c(F)c(F)ccc23)c1C [Example 257, 4-((2-(3-Chlorophenyl)-4,5-dimethyl-1H-imidazol-1-yl)methyl)-7,8-difluoroquinolin-2(1H)-one] | ≤ 5
Cc1ncsc1C(=O)N(Cc1cc(=O)[nH]c2c(F)c(F)ccc12)c1cccc(Cl)c1 [Example 53, N-(3-Chlorophenyl)-N-((7,8-difluoro-2-oxo-1,2-dihydroquinolin-4-yl)methyl)-4-methylthiazole-5-carboxamide] | ≤ 5
CN(Cc1cc(=O)[nH]c2ccccc12)c1ccccc1 [Example 15, 4-[(Methyl-phenyl-amino)-methyl]-1H-quinolin-2-one] | ≤ 5
O=c1cc(Cn2c(CC3CCCC3)nc3ccccc32)c2ccc(F)c(F)c2[nH]1 [Example 215, 4-((2-(Cyclopentylmethyl)-1H-benzo[d]imidazol-1-yl)methyl)-7,8-difluoroquinolin-2(1H)-one] | ≤ 5
Cc1ncsc1C(=O)N(Cc1cc(=O)[nH]c2c(F)c(F)ccc12)c1ccc(N2CCCCC2)cc1 [Example 170, N-((7,8-Difluoro-2-oxo-1,2-dihydroquinolin-4-yl)methyl)-4-methyl-N-(4-(piperidin-1-yl)phenyl)thiazole-5-carboxamide] | > 5
Cc1nc(Br)sc1C(=O)N(Cc1cc(=O)[nH]c2ccccc12)c1ccccc1 [Example 99, 2-Bromo-4-methyl-N-((2-oxo-1,2-dihydroquinolin-4-yl)methyl)-N-phenylthiazole-5-carboxamide] | ≤ 5
Cc1ncsc1-c1nc2ccccc2n1Cc1cc(=O)[nH]c2c(F)cccc12 [Example 79, 8-Fluoro-4-((2-(4-methylthiazol-5-yl)-1H-benzo[d]imidazol-1-yl)methyl)quinolin-2(1H)-one] | > 5
O=C(c1ccccc1F)N(Cc1cc(=O)[nH]c2c(F)cccc12)c1cccc(Cl)c1 [Example 54, N-(3-Chlorophenyl)-2-fluoro-N-((8-fluoro-2-oxo-1,2-dihydroquinolin-4-yl)methyl)benzamide] | > 5
Cc1ncsc1C(=O)N(Cc1cc(=O)[nH]c2c(F)c(F)ccc12)c1ccc(C#N)c(Cl)c1 [Example 182, N-(3-Chloro-4-cyanophenyl)-N-((7,8-fluoro-2-oxo-1,2-dihydroquinolin-4-yl)methyl)-4-methylthiazole-5-carboxamide] | ≤ 5
CC1CC1c1nc2ccccc2n1Cc1cc(=O)[nH]c2c(F)c(F)ccc12 (racemic) [Example 238, 7,8-Difluoro-4-((2-(2-methylcyclopropyl)-1H-benzo[d]imidazol-1-yl)methyl)quinolin-2(1H)-one] | > 5
Cc1ncsc1C(=O)N(Cc1cc(=O)[nH]c2c(F)cccc12)c1cccc(Cl)c1F [Example 187, N-(3-Chloro-2-fluorophenyl)-N-((8-fluoro-2-oxo-1,2-dihydroquinolin-4-yl)methyl)-4-methylthiazole-5-carboxamide] | ≤ 5
CCc1nc2ccccc2n1Cc1cc(=O)[nH]c2c(F)c(F)ccc12 [Example 221, 7,8-Difluoro-4-((2-ethyl-1H-benzo[d]imidazol-1-yl)methyl)quinolin-2(1H)-one] | ≤ 5
O=c1cc(CN(c2cccc(Cl)c2)c2ccccn2)c2cccc(F)c2[nH]1 [Example 77, 4-(((3-Chlorophenyl)(pyridin-2-yl)amino)methyl)-8-fluoroquinolin-2(1H)-one] | > 5
Cc1ncsc1C(=O)N(Cc1cc(=O)[nH]c2c(F)c(F)ccc12)c1ccc(F)c(Cl)c1 [Example 181, N-(3-Chloro-4-fluorophenyl)-N-((7,8-fluoro-2-oxo-1,2-dihydroquinolin-4-yl)methyl)-4-methylthiazole-5-carboxamide] | ≤ 5
Cc1noc(C)c1C(=O)N(Cc1cc(=O)[nH]c2ccccc12)c1ccccc1 [Example 30, 3,5-Dimethyl-N-((2-oxo-1,2-dihydroquinolin-4-yl)methyl)-N-phenylisoxazole-4-carboxamide] | > 5
Cc1ncsc1C(=O)N(Cc1cc(=O)[nH]c2c(F)cccc12)C1CC1 [Example 87, N-Cyclopropyl-N-((8-fluoro-2-oxo-1,2-dihydroquinolin-4-yl)methyl)-4-methylthiazole-5-carboxamide] | > 5
Cc1nc(N2CCN(C)CC2)sc1C(=O)N(Cc1cc(=O)[nH]c2ccccc12)c1ccccc1 [Example 102, 4-Methyl-2-(4-methylpiperazin-1-yl)-N-((2-oxo-1,2-dihydroquinolin-4-yl)methyl)-N-phenylthiazole-5-carboxamide] | > 5
Cc1ccncc1C(=O)N(Cc1c(F)c(=O)[nH]c2c(F)cccc12)c1cccc(Cl)c1 [Example 114, N-(3-Chlorophenyl)-N-((3,8-difluoro-2-oxo-1,2-dihydroquinolin-4-yl)methyl)-4-methylnicotinamide] | ≤ 5

SMILES | EC50 [µM]
Cc1cccc(N(Cc2cc(=O)[nH]c3c(F)cccc23)C(=O)c2scnc2C)c1 [Example 93, N-(3-Methylphenyl)-N-((8-fluoro-2-oxo-1,2-dihydroquinolin-4-yl)methyl)-4-methylthiazole-5-carboxamide] | ≤ 5
Cn1nnc(C(=O)N(Cc2cc(=O)[nH]c3c(F)c(F)ccc23)c2cccc(Cl)c2)n1 [Example 169] | ≤ 5
O=C(c1ccco1)N(Cc1cc(=O)[nH]c2ccccc12)c1ccncc1 [Example 13, N-[(2-Oxo-1,2-dihydroquinolin-4-yl)methyl]-N-pyridin-4-yl-2-furamide] | ≤ 5
O=c1cc(CN(CCCc2ccco2)c2ccccc2)c2ccccc2[nH]1 [Example 24, 4-(((3-(Furan-2-yl)propyl)(phenyl)amino)rmethyl)quinolin-2(1H)-one] | ≤ 5
CCCc1nc2ccccc2n1Cc1cc(=O)[nH]c2c(F)c(F)ccc12 [Example 219, 7,8-Difluoro-4-((2-propyl-1H-benzo[d]imidazol-1-yl)methyl)quinolin-2(1H)-one] | ≤ 5
O=C(c1ccco1)N(Cc1cc(=O)[nH]c2ccccc12)c1ccc(Cl)cc1 [Example 2, N-(4-Chlorophenyl)-N-((2-oxo-1,2-dihydroquinolin-4-yl)methyl)furan-2-carboxamide] | > 5
Cc1ccc(N(Cc2cc(=O)[nH]c3c(F)c(F)ccc23)C(=O)c2scnc2C)cc1Cl [Example 177, N-(3-Chloro4-methylphenyl)-N-((7,8-fluoro-2-oxo-1,2-dihydroquinolin-4-yl)methyl)-4-methylthiazole-5-carboxamide] | ≤ 5
COC(=O)C(=O)N(Cc1cc(=O)[nH]c2c(F)cccc12)c1cccc(Cl)c1 [Example 63, Methyl 2-((3-chlorophenyl)((8-fluoro-2-oxo-1,2-dihydroquinolin-4-yl)methyl)amino)-2-oxoacetate] | > 5
O=c1cc(Cn2c(-c3cccnc3)nc3ccccc32)c2cccc(F)c2[nH]1 [Example 118, 8-Fluoro-4-((2-(pyridin-3-yl)-1H-benzo[d]imidazol-1-yl)methyl)quinolin-2(1H)-one] | > 5
O=C(c1cccnc1)N(Cc1cc(=O)[nH]c2c(F)cccc12)c1cccc(Cl)c1 [Example 68, N-(3-Chlorophenyl)-N-((8-fluoro-2-oxo-1,2-dihydroquinolin-4-yl)methyl)nicotinamide] | > 5
CC1CCCCN1c1nc2ccccc2n1Cc1cc(=O)[nH]c2c(F)c(F)ccc12 (racemic) [Example 206, 7,8-Difluoro-4-((2-(2-methylpiperidin-1-yl)-1H-benzo[d]imidazol-1-yl)methyl)quinolin-2(1H)-one] | ≤ 5
Cc1ncsc1C(=O)N(Cc1cc(=O)[nH]c2c(F)c(F)ccc12)c1cccnc1 [Example 263, N-((7,8-Difluoro-2-oxo-1,2-dihydroquinolin-4-yl)methyl)-4-methyl-N-(pyridin-3-yl)thiazole-5-carboxamide] | ≤ 5
Cc1ncsc1C(=O)N(Cc1cc(=O)[nH]c2c(F)c(F)ccc12)c1cccc(C#N)c1 [Example 186, N-(3-Cyanophenyl)-N-((7,8-difluoro-2-oxo-1,2-dihydroquinolin-4-yl)methyl)-4-methylthiazole-5-carboxamide] | ≤ 5
Cn1cnc(C(=O)N(Cc2cc(=O)[nH]c3c(F)cccc23)c2cccc(Cl)c2)c1 [Example 46, N-(3-Chlorophenyl)-N-((8-fluoro-2-oxo-1,2-dihydroquinolin-4-yl)methyl)-1-methyl-1H-imidazole-4-carboxamide] | > 5
O=c1cc(CN(Cc2ccco2)c2ccccc2)c2ccccc2[nH]1 [Example 22, 4-(((Furan-2-ylmethyl)(phenyl)amino)methyl)quinolin-2(1H)-one] | ≤ 5
Cc1nccn1-c1nc2ccccc2n1Cc1cc(=O)[nH]c2c(F)c(F)ccc12 [Example 208, 7,8-Difluoro-4-((2-(2-methyl-1H-imidazol-1-yl)-1H-benzo[d]imidazol-1-yl)methyl)quinolin-2(1H)-one] | ≤ 5
Cc1ncsc1C(=O)N(Cc1c(F)c(=O)[nH]c2c(F)cccc12)c1cccc(Cl)c1 [Example 108, N-(3-Chlorophenyl)-N-((3,8-difluoro-2-oxo-1,2-dihydroquinolin-4-yl)methyl)-4-methylthiazole-5-carboxamide] | ≤ 5
CC(=O)N(Cc1cc(=O)[nH]c2ccccc12)c1ccccc1 [Example 3, N-[(2-Oxo-1,2-dihydroquinolin-4-yl)methyl]-N-phenylacetamide] | > 5
Cc1ncsc1C(=O)N(Cc1cc(=O)[nH]c2c(F)c(F)ccc12)c1cc(F)cc(Cl)c1 [Example 89] | ≤ 5
